The source of these data is PubChem BioAssay (NCI).

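A five-concentration, 48-hour dose response in 96-well plates underlies each endpoint, interpolated linearly between surrounding concentrations. GI50 = concentration required for 50% inhibition of growth. TGI: total growth inhibition.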

Test in all cases: NCI tumour cell line growth inhibition, 48 h
Experiment [1] concerns SN12C renal.
In experiment [2] the test system is SK-MEL-2 melanoma.
In experiment [3] the test system is SK-MEL-28 melanoma.
For experiment [4], the system named is OVCAR-4 ovarian.
Experiment [5] relates to NCI-H522 lung.
In experiment [6] the test system is SF-295 CNS.
For experiment [7], the system named is PC-3 prostate.
The subject of experiment [8] is SW-620 colon.
Experiment [9] relates to SF-539 CNS.
Experiment [10] deals with RXF 393 renal.

Turning to `N=c1c2c(-c3ccccc3)c(-c3ccccc3)n(Cc3ccccc3)c2ncn1C1CCC(O)CC1` (stereo not given), the GI50 was 0.389 µM in experiment [1]; 1.08 µM in experiment [2]; 0.624 µM in experiment [3]; 1.43 µM in experiment [4]; 0.576 µM in [5]; 0.0836 µM in experiment [6]. Further, the GI50 in experiment [7] is 0.466 µM; in experiment [8] it was 0.0497 µM; in [9] it was 0.639 µM; in [10] it was 0.374 µM. Also, the TGI in experiment [1] came out at 16.4 µM; in experiment [2], 4.38 µM; in [3] it was 2.22 µM; in experiment [4], 13.1 µM; in [5], 5.61 µM; in experiment [6], 1.45 µM. Further, the TGI in [7] was 5.08 µM; in [8], 12.9 µM; in experiment [9], 2.24 µM; in experiment [10], 2.4 µM.
Regarding `O=c1oc2ccc(-c3ccc(F)cc3F)cc2c(=O)n1-c1cccc(C(F)(F)F)c1`, the GI50 is 1 µM in experiment [1]; 0.55 µM in [2]; 0.756 µM in experiment [3]; 1.67 µM in [4]; 0.343 µM in [5]; 1.78 µM in experiment [6]. The GI50 in experiment [7] is 2.04 µM; in experiment [8], 2.64 µM; in experiment [9], 1.41 µM; in experiment [10], 1.23 µM. Further, the TGI in experiment [1] came to 10.4 µM; in experiment [2], 2.85 µM; in [3] it was 6.56 µM; in experiment [4] it was 13.6 µM; in [5] it was 5.61 µM; in experiment [6], 4.14 µM. Moreover, the TGI in experiment [7] was 12.4 µM; in [8], 12.8 µM; in experiment [9], 6.95 µM; in experiment [10] it was 4.14 µM.
Turning to `O=C(c1ccco1)c1c(C(F)(F)F)nc2ccc(Cl)cc2[n+]1[O-]`, the GI50 in experiment [1] was greater than 100 µM; in experiment [2], greater than 100 µM; in experiment [3], greater than 100 µM; in [4], greater than 100 µM; in experiment [5], 83.1 µM; in [6] it was greater than 100 µM. Further, the GI50 in experiment [7] was greater than 100 µM; in experiment [8], 13.4 µM; in experiment [9] it was greater than 100 µM; in experiment [10], 70.3 µM. The TGI in experiment [1], in experiment [2], in experiment [3], in experiment [4], in experiment [5] and in experiment [6] was greater than 100 µM each time. Further, the TGI is greater than 100 µM in experiment [7], 29.6 µM in [8], greater than 100 µM in experiment [9] and greater than 100 µM in [10].
With `COc1ccc(-c2ccc(=O)oc2C#Cc2cc(OC)c(OC)c(OC)c2)cc1O`, the GI50 in experiment [1] is 0.665 µM; in experiment [2] it was 1.31 µM; in experiment [3] it was 3.25 µM; in [4], 1.3 µM; in experiment [5] it was 0.172 µM; in [6], 0.495 µM. Further, the GI50 in experiment [7] was 0.621 µM; in experiment [8], 0.15 µM; in [9] it was 0.254 µM; in experiment [10] it was 0.0813 µM. The TGI in experiment [1] was greater than 100 µM; in [2], greater than 22.1 µM; in [3] it was greater than 100 µM; in experiment [4], greater than 100 µM; in [5], 0.852 µM; in experiment [6] it was greater than 100 µM. Moreover, the TGI in [7] was greater than 100 µM; in experiment [8], greater than 100 µM; in experiment [9], 1.16 µM; in experiment [10], 2.39 µM.
In the case of `COc1cc(C(=O)N2CCN(C(=O)c3cc(OC)c(OC)c(OC)c3)C2=S)cc(OC)c1OC`, the GI50 in experiment [1] is 17.1 µM; in experiment [2] it was 16.3 µM; in experiment [3], 17.2 µM; in experiment [4], 16.9 µM; in [5] it was 3.67 µM; in [6], 19 µM. The GI50 in [7] is 15 µM; in experiment [8], 20.3 µM; in experiment [9], 14.5 µM; in [10] it was 14.3 µM. Also, the TGI in [1] worked out at 35.7 µM; in experiment [2], 34.6 µM; in experiment [3], 35.5 µM; in experiment [4], 50.1 µM; in [5], 16.3 µM; in experiment [6] it was 43.7 µM. Moreover, the TGI turned out to be 32.2 µM in experiment [7], 46.5 µM in [8], 30.2 µM in experiment [9] and 28.1 µM in [10].
`O=C(Nc1cccc(C(F)(F)F)c1)c1ccc(NC2=C(Cl)C(=O)N(Cc3ccc(Cl)cc3Cl)C2=O)cc1`: the GI50 in experiment [1] was 17.4 µM; in experiment [2] it was 10.9 µM; in [3], 14.1 µM; in [4], 11.1 µM; in experiment [5], 3.34 µM; in experiment [6], 13 µM. The GI50 in experiment [7] is 4.64 µM; in [8], 2.12 µM; in experiment [9], 8.06 µM; in [10], 4.76 µM. Besides, the TGI is 32.8 µM in [1]; 25.6 µM in [2]; 30.9 µM in [3]; 42.6 µM in [4]; 10.2 µM in [5]; 35 µM in [6]. Moreover, the TGI stood at 15.2 µM in experiment [7], 6.05 µM in experiment [8], 21.5 µM in experiment [9] and 28.3 µM in experiment [10].
Turning to `O=C(/C=C/c1ccc[nH]1)c1ccc(-n2ccc(C(F)(F)F)n2)cc1`, the GI50 was 10.1 µM in experiment [1]; greater than 100 µM in [2]; greater than 100 µM in experiment [3]; 99.1 µM in experiment [4]; 4.08 µM in experiment [5]; greater than 25.8 µM in experiment [6]. The GI50 in [7] is 0.371 µM; in experiment [8], greater than 100 µM; in experiment [9], 2.53 µM; in [10], 3.61 µM. In addition, the TGI in experiment [1], in experiment [2], in experiment [3], in experiment [4], in experiment [5] and in [6] was greater than 100 µM throughout. Moreover, the TGI in experiment [7] is greater than 100 µM; in experiment [8], greater than 100 µM; in experiment [9] it was greater than 100 µM; in [10] it was greater than 31.2 µM.
Take `Cc1c(N(C)C)ccc2c(=O)c3cccc(CC(=O)O)c3oc12`: the TGI in experiment [1], in [2], in experiment [3], in experiment [4], in experiment [5] and in experiment [6] was greater than 100 µM in each case. For the same compound, the TGI in experiment [7] was greater than 100 µM; in experiment [8], greater than 53.5 µM; in experiment [9] it was greater than 100 µM; in experiment [10] it was greater than 100 µM.
As to `CCC[CH2][Sn]([CH2]CCC)([O]C(=O)c1ccc(OC)c(OC)c1OC)[O][Sn]([CH2]CCC)([CH2]CCC)[O]C(=O)c1ccc(OC)c(OC)c1OC`, the GI50 in [1] was 0.443 µM; in [2], 0.16 µM; in experiment [3], 0.25 µM; in experiment [4], 0.618 µM; in experiment [5], less than 0.0108 µM; in [6] it was 0.568 µM. For the same compound, the GI50 in [7] was 1.2 µM; in experiment [8], 0.0889 µM; in experiment [9] it was 0.36 µM; in experiment [10], 0.153 µM. Besides, the TGI was 1.58 µM in [1]; 0.48 µM in [2]; 0.723 µM in experiment [3]; 1.87 µM in [4]; 0.0392 µM in [5]; 1.5 µM in experiment [6]. Further, the TGI in experiment [7] was 2.46 µM; in [8], 0.271 µM; in experiment [9], 0.94 µM; in experiment [10], 0.38 µM.
Regarding `O=c1c(F)cn(Cc2ccc(C34CC5CC(CC(C5)C3)C4)c(O)c2)c(=O)n1Cc1ccc(C23CC4CC(CC(C4)C2)C3)c(O)c1`, the GI50 in experiment [1] was 10.5 µM; in experiment [2] it was 18.8 µM; in experiment [3], 17.7 µM; in [4], 14.8 µM; in experiment [5], 15.9 µM; in experiment [6], 16.9 µM. The GI50 in experiment [7] was 10.7 µM; in experiment [8], 10.7 µM; in experiment [9], 11.5 µM; in experiment [10], 6.5 µM. The TGI worked out at 22.3 µM in experiment [1]; 41.8 µM in [2]; 32.3 µM in experiment [3]; 30.8 µM in experiment [4]; 32.9 µM in experiment [5]; 32.5 µM in experiment [6]. For the same compound, the TGI in experiment [7] is 24.2 µM; in experiment [8] it was 26.4 µM; in [9], 24.4 µM; in experiment [10], greater than 100 µM.
Regarding `Cc1nc(Nc2cccnc2)sc1C(=O)/C=C/c1ccc(F)cc1`, the GI50 in experiment [1] is 3.17 µM; in [2], 2.86 µM; in experiment [3] it was 3.72 µM; in experiment [4], 4.29 µM; in experiment [5] it was 2.17 µM; in experiment [6] it was 3.09 µM. Further, the GI50 was 4.07 µM in [7], 2.46 µM in experiment [8], 2.46 µM in experiment [9] and 3.01 µM in experiment [10]. The TGI in [1] is greater than 100 µM; in experiment [2], 9.03 µM; in experiment [3] it was 21.4 µM; in experiment [4] it was greater than 100 µM; in experiment [5], 5.11 µM; in experiment [6], 18.2 µM. For the same compound, the TGI in experiment [7] was 20.1 µM; in experiment [8] it was 6.46 µM; in experiment [9] it was 7.26 µM; in [10] it was 8.31 µM.
